Our source for the Max % inhibition and IC50 values is patent US20230089867A1, “CYCLIC PENTAMER COMPOUNDS AS PROPROTEIN CONVERTASE SUBTILISIN/KEXIN TYPE 9 (PCSK9) INHIBITORS FOR THE TREATMENT OF METABOLIC DISORDER” (Novartis AG, priority 2018, published 2023).

This test concerns the target human PCSK9 (Homo sapiens, UniProt Q8NBP7). Nature of the test: PCSK9 ligand binding TR-FRET assay (interference with binding of human PCSK9 to human LDLR). The following applies: for Max % inhibition: PCSK9 FRET assay, efficacy (Amax), 100% = 1 uM unlabeled human PCSK9, 0% = DMSO; for IC50: TR-FRET, human PCSK9 Alexa Fluor 647 / human LDLR extracellular domain-Europium Kryptate, read-out: PCSK9 FRET Assay IC50. The method, boiled down: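 Threefold compound dilutions were pre-incubated 30 min with PCSK9, after which 4 nM Europium Kryptate-tagged human LDLR ectodomain was added for a further 2 h.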
In general terms: In TR-FRET formats the signal depends on donor and acceptor labels being close together.

human PCSK9, sequence (Q8NBP7 153-692): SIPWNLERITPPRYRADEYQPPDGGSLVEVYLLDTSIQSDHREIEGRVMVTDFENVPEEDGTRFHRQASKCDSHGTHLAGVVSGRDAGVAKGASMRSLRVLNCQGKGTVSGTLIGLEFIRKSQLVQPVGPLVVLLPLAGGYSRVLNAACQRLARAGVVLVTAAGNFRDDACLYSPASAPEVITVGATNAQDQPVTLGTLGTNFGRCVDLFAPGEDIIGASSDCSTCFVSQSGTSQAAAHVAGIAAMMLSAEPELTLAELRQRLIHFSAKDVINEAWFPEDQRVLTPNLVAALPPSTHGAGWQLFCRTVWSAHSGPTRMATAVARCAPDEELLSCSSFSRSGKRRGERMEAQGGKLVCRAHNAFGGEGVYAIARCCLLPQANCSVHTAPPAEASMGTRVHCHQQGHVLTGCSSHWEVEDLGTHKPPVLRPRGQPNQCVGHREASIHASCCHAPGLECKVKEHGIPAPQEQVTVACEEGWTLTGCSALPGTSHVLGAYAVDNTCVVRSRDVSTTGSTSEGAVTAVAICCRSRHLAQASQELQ
human PCSK9, sequence (Q8NBP7 31-152 partner limits assumed): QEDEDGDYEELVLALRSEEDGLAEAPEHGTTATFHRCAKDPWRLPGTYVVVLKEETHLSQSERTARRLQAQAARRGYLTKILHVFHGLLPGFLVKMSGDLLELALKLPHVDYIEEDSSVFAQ

On to `COC[C@@H]1NC(=O)[C@H](C)N(Cc2ccc(Cl)cc2Oc2ccc(-c3cnc(CN4CCCC4)n3C)cc2)C(=O)C[C@@H](Cc2ccccc2)C(=O)N(C)[C@@H](C)CNC(=O)C[C@H](Cc2ccc(Cl)cc2)NC1=O` [Compound 256, (2S,5S,8S,13S,16R)-16-benzyl-1-(4-chloro-2-(4-(1-methyl-2-(pyrrolidin-1-ylmethyl)-1H-imidazol-5-yl)phenoxy)benzyl)-8-(4-chlorobenzyl)-5-(methoxymethyl)-2,13,14-trimethyl-1,4,7,11,14-pentaazacyclooctadecane-3,6,10,15,18-pentaone], for which the Max % inhibition is 79.36% and the IC50 (in general, the concentration at which inhibition is half-maximal) was found to be 52.4 nM.
The matching figures for `C[C@H]1CNC(=O)C[C@H](Cc2ccc(Cl)cc2)N(C)C(=O)[C@H](CCF)NC(=O)[C@H](C)N(Cc2ccc(Cl)cc2Oc2ccc(-c3cnc(CN4CCCC4)n3C)cc2)C(=O)C[C@@H](Cc2ccccc2)C(=O)N1C` [Compound 257, (2S,5S,8S,13S,16R)-16-benzyl-1-(4-chloro-2-(4-(1-methyl-2-(pyrrolidin-1-ylmethyl)-1H-imidazol-5-yl)phenoxy)benzyl)-8-(4-chlorobenzyl)-5-(2-fluoroethyl)-2,7,13,14-tetramethyl-1,4,7,11,14-pentaazacyclooctadecane-3,6,10,15,18-pentaone]: 50.23% and 21.3 nM.
The matching figures for `COC[C@@H]1NC(=O)[C@H](C)N(Cc2ccc(Cl)cc2Oc2ccc(-c3cnc(CN(C)C)n3C)cc2)C(=O)C[C@@H](Cc2c(F)ccc(F)c2F)C(=O)N(C)[C@@H](C)CNC(=O)C[C@H](Cc2ccc(Cl)cc2)N(C)C1=O` [Compound 258, (2S,5S,8S,13S,16R)-1-(4-chloro-2-(4-(2-((dimethylamino)methyl)-1-methyl-1H-imidazol-5-yl)phenoxy)benzyl)-8-(4-chlorobenzyl)-5-(methoxymethyl)-2,7,13,14-tetramethyl-16-(2,3,6-trifluorobenzyl)-1,4,7,11,14-pentaazacyclooctadecane-3,6,10,15,18-pentaone]: 98.94% and 4.3 nM.
As to `COC[C@@H]1NC(=O)[C@H](C)N(Cc2ccc(Cl)cc2Oc2ccc(-n3cnc(CN4CCCC4)c3C)cc2)C(=O)C[C@@H](Cc2ccccc2)C(=O)N(C)[C@@H](C)CNC(=O)C[C@H](Cc2ccc(Cl)cc2)N(C)C1=O` [Compound 259, (2S,5S,8S,13S,16R)-16-benzyl-1-(4-chloro-2-(4-(5-methyl-4-(pyrrolidin-1-ylmethyl)-1H-imidazol-1-yl)phenoxy)benzyl)-8-(4-chlorobenzyl)-5-(methoxymethyl)-2,7,13,14-tetramethyl-1,4,7,11,14-pentaazacyclooctadecane-3,6,10,15,18-pentaone], the Max % inhibition came out at 108.15% and the IC50 was determined as 3.2 nM.
As for `Cc1c(CN2CCCC2)ncn1-c1ccc(Oc2cc(Cl)ccc2CN2C(=O)C[C@@H](Cc3ccccc3)C(=O)N(C)[C@H]3CCCC[C@@H]3NC(=O)C[C@H](Cc3ccc(Cl)cc3)N(C)C(=O)[C@H](CO)NC(=O)[C@@H]2C)cc1` [Compound 260, (4S,7S,10S,14R,16aS,20aS)-14-benzyl-11-(4-chloro-2-(4-(5-methyl-4-(pyrrolidin-1-ylmethyl)-1H-imidazol-1-yl)phenoxy)benzyl)-4-(4-chlorobenzyl)-7-(hydroxymethyl)-5,10,16-trimethylhexadecahydrobenzo[l][1,4,7,11,14]pentaazacyclooctadecine-2,6,9,12,15(3H)-pentaone], the Max % inhibition is recorded as 109.05% and the IC50 is 2.1 nM.
The matching figures for `COC[C@@H]1NC(=O)[C@H](C)N(Cc2ccc(Cl)cc2Oc2ccc(-c3cnc([C@@H](C)N(C)C)n3C)cc2)C(=O)C[C@@H](Cc2ccccc2)C(=O)N(C)[C@@H](C)[C@H](C)NC(=O)C[C@H](Cc2ccc(Cl)cc2)N(C)C1=O` [Compound 261, (2S,5S,8S,12S,13S,16R)-16-benzyl-1-(4-chloro-2-(4-(2-((R)-1-(dimethylamino)ethyl)-1-methyl-1H-imidazol-5-yl)phenoxy)benzyl)-8-(4-chlorobenzyl)-5-(methoxymethyl)-2,7,12,13,14-pentamethyl-1,4,7,11,14-pentaazacyclooctadecane-3,6,10,15,18-pentaone]: 111.41% and 2 nM.
The matching figures for `COC[C@@H]1NC(=O)[C@H](C)N(Cc2ccc(Cl)cc2Oc2ccc(-c3cnc(CN(C)C)n3C)cc2)C(=O)C[C@H]2C(=O)N(C)[C@@H](CNC(=O)C[C@H](Cc3ccc(Cl)cc3)N(C)C1=O)C(=O)N2C` [Compound 262, (1S,6S,9S,12S,16S)-13-(4-chloro-2-(4-(2-((dimethylamino)methyl)-1-methyl-1H-imidazol-5-yl)phenoxy)benzyl)-6-(4-chlorobenzyl)-9-(methoxymethyl)-7,12,17,19-tetramethyl-3,7,10,13,17,19-hexaazabicyclo[14.2.2]icosane-4,8,11,14,18,20-hexaone]: 97.63% and 205 nM.
For `CCC[C@@H]1CC(=O)N(Cc2ccc(Cl)cc2Oc2ccc(-c3cnc(CN(C)C)n3C)cc2)[C@@H](C)C(=O)N[C@@H](COC)C(=O)N(C)[C@@H](Cc2ccc(Cl)cc2)CC(=O)N[C@H]2CCCC[C@@H]2N(C)C1=O` [Compound 263, (4S,7S,10S,14R,16aS,20aS)-11-(4-chloro-2-(4-(2-((dimethylamino)methyl)-1-methyl-1H-imidazol-5-yl)phenoxy)benzyl)-4-(4-chlorobenzyl)-7-(methoxymethyl)-5,10,16-trimethyl-14-propylhexadecahydrobenzo[l][1,4,7,11,14]pentaazacyclooctadecine-2,6,9,12,15(3H)-pentaone], in that order: 76.79% and 5.3 nM.
On to `COC[C@@H]1NC(=O)[C@H](C)N(Cc2ccc(Cl)cc2Oc2ccc(-n3cnc(CN4CCOCC4)c3C)cc2)C(=O)C[C@@H](Cc2ccccc2)C(=O)N(C)[C@H]2CCCC[C@@H]2NC(=O)C[C@H](Cc2ccc(Cl)cc2)N(C)C1=O` [Compound 266, (4S,7S,10S,14R,16aS,20aS)-14-benzyl-11-(4-chloro-2-(4-(5-methyl-4-(morpholinomethyl)-1H-imidazol-1-yl)phenoxy)benzyl)-4-(4-chlorobenzyl)-7-(methoxymethyl)-5,10,16-trimethylhexadecahydrobenzo[l][1,4,7,11,14]pentaazacyclooctadecine-2,6,9,12,15(3H)-pentaone], for which the Max % inhibition was found to be 106.30% and the IC50 worked out at 1.9 nM.
The matching figures for `CCOC(=O)CCCN(CCCC(=O)OCC)CCC[C@H]1C(=O)N[C@@H](COC)C(=O)N(C)[C@@H](Cc2ccc(Cl)cc2)CC(=O)N[C@H]2CCCC[C@@H]2N(C)C(=O)[C@H](Cc2ccccc2)CC(=O)N1Cc1ccc(Cl)cc1Oc1ccc(-c2cnc(CN(C)C)n2C)cc1` [Compound 267, diethyl 4,4′-((3-((4S,7S,10S,14R,16aS,20aS)-14-benzyl-11-(4-chloro-2-(4-(2-((dimethylamino)methyl)-1-methyl-1H-imidazol-5-yl)phenoxy)benzyl)-4-(4-chlorobenzyl)-7-(methoxymethyl)-5,16-dimethyl-2,6,9,12,15-pentaoxodocosahydrobenzo[l][1,4,7,11,14]pentaazacyclooctadecin-10-yl)propyl)azanediyl)dibutanoate]: 93.76% and 7.1 nM.
The matching figures for `CC[C@H](c1ncc(-c2ccc(Oc3cc(Cl)ccc3CN3C(=O)C[C@@H](Cc4ccccc4)C(=O)N(C)[C@H]4CCCC[C@@H]4NC(=O)C[C@H](Cc4ccc(Cl)cc4)N(C)C(=O)[C@H](COC)NC(=O)[C@@H]3C)cc2)n1C)N(C)C` [Compound 268, (4S,7S,10S,14R,16aS,20aS)-14-benzyl-11-(4-chloro-2-(4-(2-((R)-1-(dimethylamino)propyl)-1-methyl-1H-imidazol-5-yl)phenoxy)benzyl)-4-(4-chlorobenzyl)-7-(methoxymethyl)-5,10,16-trimethylhexadecahydrobenzo[l][1,4,7,11,14]pentaazacyclooctadecine-2,6,9,12,15(3H)-pentaone]: 68.37% and 9.4 nM.
As to `COC[C@@H]1NC(=O)[C@H](CC(=O)N(C)C)N(Cc2ccc(Cl)cc2Oc2ccc(-c3cnc(CN(C)C)n3C)cc2)C(=O)C[C@@H](Cc2ccccc2)C(=O)N(C)[C@H]2CCCC[C@@H]2NC(=O)C[C@H](Cc2ccc(Cl)cc2)N(C)C1=O` [Compound 269, 2-((4S,7S,10S,14R,16aS,20aS)-14-benzyl-11-(4-chloro-2-(4-(2-((dimethylamino)methyl)-1-methyl-1H-imidazol-5-yl)phenoxy)benzyl)-4-(4-chlorobenzyl)-7-(methoxymethyl)-5,16-dimethyl-2,6,9,12,15-pentaoxodocosahydrobenzo[l][1,4,7,11,14]pentaazacyclooctadecin-10-yl)-N,N-dimethylacetamide], the Max % inhibition was 97.18% and the IC50 was 1.3 nM.
The matching figures for `COC[C@@H]1NC(=O)[C@H](C)N(Cc2ccc(Cl)cc2Oc2ccc(-n3cnc([C@@H](C)N(C)C)c3C)cc2)C(=O)C[C@@H](Cc2ccccc2)C(=O)N(C)[C@@H](C)[C@H](C)NC(=O)C[C@H](Cc2ccc(Cl)cc2)N(C)C1=O` [Compound 270, (2S,5S,8S,12S,13S,16R)-16-benzyl-1-(4-chloro-2-(4-(4-((R)-1-(dimethylamino)ethyl)-5-methyl-1H-imidazol-1-yl)phenoxy)benzyl)-8-(4-chlorobenzyl)-5-(methoxymethyl)-2,7,12,13,14-pentamethyl-1,4,7,11,14-pentaazacyclooctadecane-3,6,10,15,18-pentaone]: 106.63% and 2.7 nM.
